Experimental data reported in patent US20250313532A1, “ALDH2 INHIBITORS AND METHODS OF USE THEREOF” (UNIVERSITY OF MARYLAND, BALTIMORE, priority 2022, published 2025).
Read-outs that look alike come from different tables or passages of the source.

What was measured:
[1] = biological target: T1, ALDH2 (Homo sapiens, UniProt P05091); experiment: Fluorescence-based ALDH2 enzymatic inhibition assay (NADH fluorescence); format: biochemical; details: for IC50: ALDH2 50 nM, formaldehyde 300 μM, NAD+ 1.2 mM, pH 7.4, 25° C.; for fold more potent than hit CB-01 (ALDH2 IC50): relative to parent screening hit CB-01
T1 construct: purchased Abcam 87415
T1 sequence (P05091 18-517): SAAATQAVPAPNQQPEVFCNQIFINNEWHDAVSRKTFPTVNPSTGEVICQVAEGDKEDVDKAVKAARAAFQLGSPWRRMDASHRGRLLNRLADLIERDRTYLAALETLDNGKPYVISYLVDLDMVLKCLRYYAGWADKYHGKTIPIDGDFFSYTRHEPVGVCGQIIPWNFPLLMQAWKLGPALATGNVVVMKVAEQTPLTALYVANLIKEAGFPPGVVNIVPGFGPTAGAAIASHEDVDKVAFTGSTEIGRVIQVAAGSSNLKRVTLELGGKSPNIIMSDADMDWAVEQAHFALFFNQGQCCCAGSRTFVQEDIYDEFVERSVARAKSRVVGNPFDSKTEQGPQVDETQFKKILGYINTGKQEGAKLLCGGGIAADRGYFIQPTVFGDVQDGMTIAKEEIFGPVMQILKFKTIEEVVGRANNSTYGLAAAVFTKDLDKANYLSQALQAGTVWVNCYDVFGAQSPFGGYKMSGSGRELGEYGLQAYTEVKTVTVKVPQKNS
Description: Fluorescence-based ALDH2 assay was used to test the potencies of new compounds.
IC50 values of synthesized compounds is tested by an ALDH2 enzymatic assay obtained by modifying a published protocol, for example by Yang et al. This assay measures an inhibitor-caused fluorescence decrease of the NADH generated from the ALDH2 catalytic reaction. Inhibitor binding causes a decrease in the production of NADH that affects the ability of the enzyme to turnover its substrate aldehyde and decreased the production of carboxylic acid. The assay components include: ALDH2 (50 nM) (Abcam #87415), substrate formaldehyde (300 μM), NAD^+ (1.2 mM), and testing compound in phosphate buffer (50 mM, pH 7.4) with 0.01% Tween 20 at 25° C. The assay is performed in black 384-well plates (40 L total volume; Costar). […] The negative control contains the enzyme, substrate solution in phosphate buffer without the addition of the substrate formaldehyde. Measurements are performed 10 min after adding the testing compound by excitation of NAD^+ at 340 nm, which leads to fluorescence emission at 450 nm. The IC50 values of testing compounds is determined from experiments performed in a concentration-dependent manner of testing compounds by fitting the data to a sigmoidal dose-response equation in GraphPad Prism. All experiments are performed in triplicate.
An HTS ALDH2 enzymatic assay is established and can be used to measure the inhibitory potency of compounds. […] The assay was used for temperature, pH value, and concentration of ALDH2 in the 384-well format; several independent test runs were performed to assess assay parameters.
To determine the performance of the established ALDH2 activity assay under HTS conditions, a pilot screen of 980 compounds was performed. Compounds were tested in triplicate at concentrations ranging from 10 nM to 50 μM (0.1% DMSO). Raw assay data were analyzed using DataWarrior software. The IC50 value of each compound was calculated. “High Control” represents wells from the same plate containing ALDH2 (50 nM), formaldehyde (300 μM), and NAD^+ (1.2 mM) in phosphate buffer (50 mM, pH 7.4) with 0.01% Tween 20 at 25° C. and DMSO (0.1%) while “Low controls” correspond to the wells from the same plate containing ALDH2 (50 nM) treated with and NAD^+ (1.2 mM) in phosphate buffer (50 mM, pH 7.4) with 0.01% Tween 20 at 25° C. and DMSO (0.1%). […] Two values were subsequently calculated: 1) the average IC50 values of all the compounds tested in the screen, and 2) three times the standard deviation. The sum of these two values was used as the cutoff parameter.

[2] = biological target: T2, OATP1B1 (Homo sapiens, UniProt Q9Y6L6); experiment: OATP1B1-mediated uptake, OATP1B1-transfected vs wild-type HEK293 cells; format: in vitro ADME
T2 construct: expressed in transfected cells; host or cells: HEK293
T2 sequence (Q9Y6L6 1-691): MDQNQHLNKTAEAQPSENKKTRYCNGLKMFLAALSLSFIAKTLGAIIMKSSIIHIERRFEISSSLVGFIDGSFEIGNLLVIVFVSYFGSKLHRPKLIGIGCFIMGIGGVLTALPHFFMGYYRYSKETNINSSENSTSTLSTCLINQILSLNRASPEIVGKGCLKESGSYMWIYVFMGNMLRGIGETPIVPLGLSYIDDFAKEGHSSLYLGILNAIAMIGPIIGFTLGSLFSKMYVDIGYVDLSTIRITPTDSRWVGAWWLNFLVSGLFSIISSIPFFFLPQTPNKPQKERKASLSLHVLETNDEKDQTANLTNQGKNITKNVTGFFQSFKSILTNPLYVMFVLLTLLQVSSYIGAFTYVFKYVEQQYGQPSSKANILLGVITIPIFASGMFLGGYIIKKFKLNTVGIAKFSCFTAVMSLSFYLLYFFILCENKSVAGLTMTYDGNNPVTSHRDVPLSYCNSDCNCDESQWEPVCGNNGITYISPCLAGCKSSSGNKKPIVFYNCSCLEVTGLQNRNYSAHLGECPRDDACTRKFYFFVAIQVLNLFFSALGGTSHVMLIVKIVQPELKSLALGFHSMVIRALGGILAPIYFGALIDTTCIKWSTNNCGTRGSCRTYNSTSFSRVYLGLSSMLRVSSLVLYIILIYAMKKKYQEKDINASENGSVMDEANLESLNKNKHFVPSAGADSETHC
Description: The uptake of inhibitor YA7068 by the liver-specific transporter OATP1B1 has been evaluated using a protocol similar to the one in a recent study on OCT transporters by Obianom et al. After incubating OATP1B1-transfected HEK293 cells with the compound, the intracellular concentrations of YA7068 was >2.5-fold higher than that after incubating the wild-type HEK293 cells with the compound (FIG. 3D). In sum, compound YA7068 is developed as a novel liver-targeting potent inhibitor of ALDH2.
The OATP1-mediated uptake of synthesized compounds is assessed by an LC-MS-based method employing the OATP1B1- or OATP1B3-expressing HEK293 cells. Briefly, cells are washed twice with uptake buffer to remove floating cells. Compounds diluted in the uptake buffer are replaced in the wells and incubated for 10 min. For screening of compounds at a single concentration and one-time point, the cells are incubated with 100 μM of testing compounds. In each experiment, pitavastatin is used as a positive control. The incubation is stopped by removing the solution and adding […] of ice-cold uptake buffer. The cells are washed twice with the buffer. After washing, 200 μL of lysing solution (1:1 MeOH/H2O) containing internal standard is added. […] Aliquots of the supernatant are transferred to new tubes and drug concentration is quantified by LC-MS/MS. […]

[3] = system: primary human hepatocytes; experiment: Cytotoxicity / cell viability in primary human hepatocytes (CCK-8); format: cell-based; details: concentration up to 200 uM, 24 h
Description: Initial cell viability assays are performed on the YA7068 and new analogs on primary human hepatocytes (see letter from Prof. Hongbing Wang) using the commercially available CellTiter-Glo® 2.0 (Promega) as described by the manufacturer. […] These studies allow us to assess if the compounds are non-toxic for human liver cells.
Cytotoxicity studies of YA7068 to primary human hepatocytes were performed.
Human primary hepatocytes were maintained in DMEM medium with 10% fetal bovine serum (FBS) and 1% PS (penicillin/streptomycin). The cells were incubated in 37° C. incubator with 5% CO2. The number of viable cells was determined using the CCK-8 assay. Briefly, cells were seeded at a density of 5000 cells/well in 96-well plates, a nd were treated in triplicate with different concentrations of individual compounds (0, 0.1, 0.5, 1, 5, 10, 25, 50, 100, and 200 PM) for 24 h. Then, 10 μL of CCK-8 working solution was added to each well and incubated for appropriate times (0.5-4 h) before subjecting to a microplate reader for OD detection at 450 nm.

IC50 ([1]; read-out: IC50, inhibition of the enzymatic activity of ALDH2) [µM]	fold more potent than hit CB-01 (ALDH2 IC50) [1] [fold]	intracellular concentration, OATP1B1-transfected HEK293 cells vs wild-type HEK293 cells ([2]; after incubating cells with the compound) [fold]	substrate for hepatocyte-specific OATP1B1 ([2]; result in words)	IC50 ([1]; read-out: IC50, ALDH2 enzymatic assay) [µM]	SMILES	cytotoxicity for primary human hepatocytes [3]
0.062	> 170	> 2.5	functions as a substrate		CS(=O)(=O)Nc1ccc(-c2cc3ccc(OCc4cccc(C(=O)O)c4)cc3oc2=O)cc1 [YA7068, 3-(((3-(4-(Methylsulfonamido)phenyl)-2-oxo-2H-chromen-7-yl)oxy)methyl)benzoic acid]	did not exhibit any cytotoxicity
	5.8			1.9	CS(=O)(=O)Nc1ccc(-c2cn3cc(C(=O)O)sc3n2)cc1 [YA7241, 6-(4-(Methylsulfonamido)phenyl)imidazo[2,1-b]thiazole-2-carboxylic acid]	
